In patent publication US10815235B2, “Polycyclic compounds and uses thereof” (priority 2017, dated 2020):
Read-outs that look alike come from different tables or passages of the source.

Key:
Assay type in all cases: cell-based
[1] = molecular target: T1, Serotonin 5-HT2A receptor (Homo sapiens, UniProt P28223); test: IPOne HTRF assay, agonist and antagonist mode
T1 construct: expressed in transfected cells; host or cells: CHO-K1
Experimental: (§1) Antagonist and agonist activities were determined using an IPOne […] HTRF assay. The assay was prepared as follows: CHO-K1 cells expressing human recombinant Adrenergic α1A, Serotonin 5-HT2A, and 5-HT2B receptors grown to mid-log phase in culture media without antibiotics were detached with PBS-EDTA, centrifuged and resuspended in medium without antibiotics buffer. 20,000 cells were distributed in a 96 well plate and incubated overnight at 37° C. with 5% CO2.
(§2) To analyze agonist activity, the medium was removed and 20 μl of assay buffer plus 20 μl of test compound or reference agonist were added in each well. The plate was incubated for 60 min. at 37° C. with 5% CO2. EC50 values were used to determine whether a compound acted as an agonist.
(§3) To analyze antagonist activity, 20 μl of test compound or reference antagonist was added and the plate is incubated for 15 min. at 37° C. in a humidified atmosphere of 95% air with 5% CO2, then 20 μl of reference agonist at a final concentration corresponding to the historical EC80 is added. The plate is incubated for 60 min. at 37° C. with 5% CO2. IP1-D2 reagent and anti-IP1 cryptate reagents are then dispensed in the wells and IP1 concentrations are then measured following the manufacturer recommendations. IC50 values were used to determine whether a compound acted as an antagonist.

[2] = molecular target: T2, Serotonin 5-HT2B receptor (Homo sapiens, UniProt P41595); test: IPOne HTRF assay, agonist and antagonist mode
T2 construct: expressed in transfected cells; host or cells: CHO-K1
Experimental: as §1, §2, §3

Adrenergic α1A receptor = molecular target: T3, Adrenergic α1A receptor (Homo sapiens, UniProt P35348); test: IPOne HTRF assay, agonist and antagonist mode
T3 construct: expressed in transfected cells; host or cells: CHO-K1
T3 sequence (P35348 1-466): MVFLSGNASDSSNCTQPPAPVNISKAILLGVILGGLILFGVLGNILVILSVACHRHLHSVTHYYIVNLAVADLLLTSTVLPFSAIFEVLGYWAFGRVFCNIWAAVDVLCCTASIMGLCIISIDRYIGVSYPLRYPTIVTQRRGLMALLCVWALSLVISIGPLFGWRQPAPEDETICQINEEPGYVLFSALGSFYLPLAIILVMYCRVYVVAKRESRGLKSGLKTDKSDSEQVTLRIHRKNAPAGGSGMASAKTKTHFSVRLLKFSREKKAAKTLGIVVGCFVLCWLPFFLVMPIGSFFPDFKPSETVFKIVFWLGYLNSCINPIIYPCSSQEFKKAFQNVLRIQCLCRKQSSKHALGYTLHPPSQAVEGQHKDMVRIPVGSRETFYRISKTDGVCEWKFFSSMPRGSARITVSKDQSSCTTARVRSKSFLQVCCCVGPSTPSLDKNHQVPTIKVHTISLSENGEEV
Experimental: as §1, §2, §3

Serotonin 5-HT7 receptor = molecular target: T4, Serotonin 5-HT7 receptor (Homo sapiens, UniProt P34969); test: cAMP HTRF Assay for Gs Coupled Receptors, agonist and antagonist mode
T4 construct: expressed in transfected cells; host or cells: CHO-K1
Experimental: Antagonist and agonist activities were shown using a cAMP HTRF Assay for Gs Coupled Receptors. The assay was prepared as follows: CHO-K1 cells expressing recombinant human and Serotonin 5-HT7 receptors were grown, prior to analysis, in media without antibiotic. The cells were detached by gentle flushing with PBS-EDTA (5 mM EDTA), recovered by centrifugation, and resuspended in assay buffer (KRH: 5 mM KCl, 1.25 mM MgSO4, 124 mM NaCl, 25 mM HEPES, 13.3 mM Glucose, 1.25 mM KH2PO4, 1.45 mM CaCl2, 0.5 g/l BSA).
To determine agonist activity (96 well), 12 μL of cells were mixed with 12 μL of the test compound at increasing concentrations and then incubated 30 min at room temperature. After addition of the lysis buffer and 1 hour incubation, cAMP concentrations were estimated according to the manufacturer specification.
Antagonist activity was determined in 96 well plates: 12 μL of cells were mixed with 6 μL of the test compound at increasing concentrations and then incubated 10 min. Thereafter 6 μL of the reference agonist was added at a final concentration corresponding to the historical EC80. The plates were then incubated for 30 min at room temperature. After addition of the lysis buffer and 1 hour incubation, cAMP concentrations were estimated according to the manufacturer specification. IC50 values were used to determine whether a compound acted as an antagonist.

[3] = CHO-K1 cells, vs reference agonist at EC80, read-out: Antagonist Activity (IC50), 5-HT2A
[4] = antagonist mode, bound stated, read-out: IC50 value for the Serotonin 5-HT2A receptor
[5] = CHO-K1 cells, vs reference agonist at EC80, read-out: Antagonist Activity (IC50), 5-HT2B
[6] = antagonist mode, bound stated, read-out: IC50 value for the Serotonin 5-HT2B receptor
[7] = Antagonist Activity (IC50), α1A, CHO-K1 cells, vs reference agonist at EC80
[8] = IC50 value for the Adrenergic α1A receptor, antagonist mode, bound stated
[9] = Antagonist Activity (IC50), 5-HT7, CHO-K1 cells, vs reference agonist at EC80
[10] = IC50 value for the Serotonin 5-HT7 receptor, antagonist mode, bound stated
[11] = CHO-K1 cells, read-out: Agonist Activity (EC50), 5-HT2A
[12] = agonist mode, bound stated, read-out: EC50 value for the Serotonin 5-HT2A receptor

T1 sequence (P28223 whole entry): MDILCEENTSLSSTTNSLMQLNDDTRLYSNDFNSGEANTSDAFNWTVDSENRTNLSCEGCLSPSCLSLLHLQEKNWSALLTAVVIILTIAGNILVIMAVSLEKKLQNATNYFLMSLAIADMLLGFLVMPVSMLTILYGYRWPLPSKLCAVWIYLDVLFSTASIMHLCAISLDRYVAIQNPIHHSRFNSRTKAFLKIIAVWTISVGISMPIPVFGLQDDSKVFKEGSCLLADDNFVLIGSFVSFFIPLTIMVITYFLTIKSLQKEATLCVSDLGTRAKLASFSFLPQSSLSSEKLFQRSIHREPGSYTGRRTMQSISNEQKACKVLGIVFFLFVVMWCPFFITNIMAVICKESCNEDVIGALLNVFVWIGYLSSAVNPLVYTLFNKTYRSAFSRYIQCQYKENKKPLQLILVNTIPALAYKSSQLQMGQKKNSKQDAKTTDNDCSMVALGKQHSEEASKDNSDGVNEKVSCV
T4 sequence (P34969 whole entry): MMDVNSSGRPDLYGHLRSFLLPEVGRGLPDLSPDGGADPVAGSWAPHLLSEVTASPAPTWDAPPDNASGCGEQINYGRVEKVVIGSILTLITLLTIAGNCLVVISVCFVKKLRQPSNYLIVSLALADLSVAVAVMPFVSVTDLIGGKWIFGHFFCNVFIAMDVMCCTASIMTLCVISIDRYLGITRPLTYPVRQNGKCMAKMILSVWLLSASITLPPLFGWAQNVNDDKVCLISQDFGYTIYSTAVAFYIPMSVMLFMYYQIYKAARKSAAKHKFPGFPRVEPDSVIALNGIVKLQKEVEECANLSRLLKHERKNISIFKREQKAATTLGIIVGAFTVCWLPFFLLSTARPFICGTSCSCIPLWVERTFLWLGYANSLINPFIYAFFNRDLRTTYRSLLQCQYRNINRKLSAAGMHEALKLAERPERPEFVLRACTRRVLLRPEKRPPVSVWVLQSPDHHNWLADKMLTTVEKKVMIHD
T2 sequence (P41595 whole entry): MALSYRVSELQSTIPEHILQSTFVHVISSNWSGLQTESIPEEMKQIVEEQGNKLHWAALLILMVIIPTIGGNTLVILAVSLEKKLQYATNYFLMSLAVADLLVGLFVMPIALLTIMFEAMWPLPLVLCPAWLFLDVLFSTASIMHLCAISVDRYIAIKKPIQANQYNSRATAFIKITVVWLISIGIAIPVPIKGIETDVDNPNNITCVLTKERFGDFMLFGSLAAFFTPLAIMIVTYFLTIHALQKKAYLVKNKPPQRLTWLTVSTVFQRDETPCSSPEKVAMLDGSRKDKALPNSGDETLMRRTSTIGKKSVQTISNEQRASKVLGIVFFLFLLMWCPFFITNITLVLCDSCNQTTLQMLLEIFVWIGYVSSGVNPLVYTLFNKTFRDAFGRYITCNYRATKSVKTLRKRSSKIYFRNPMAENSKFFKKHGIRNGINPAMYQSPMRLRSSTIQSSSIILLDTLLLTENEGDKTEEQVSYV

Row | SMILES | IC50 [1, 3] [nM] | IC50 [1, 4] [nM] | IC50 [2, 5] [nM] | IC50 [2, 6] [nM] | IC50 (Adrenergic α1A receptor; [7]) [nM] | IC50 (Adrenergic α1A receptor; [8]) [nM] | IC50 (Serotonin 5-HT7 receptor; [9]) [nM] | IC50 (Serotonin 5-HT7 receptor; [10]) [nM] | EC50 [1, 11] [nM] | EC50 [1, 12] [nM] | IC50 ([1]; Antagonist Activity (IC50), 5-HT2A, CHO-K1 cells, vs reference agonist at EC80) [nM] | IC50 ([1]; IC50 value for the Serotonin 5-HT2A receptor, antagonist mode, bound stated) [nM] | IC50 ([2]; Antagonist Activity (IC50), 5-HT2B, CHO-K1 cells, vs reference agonist at EC80) [nM] | IC50 ([2]; IC50 value for the Serotonin 5-HT2B receptor, antagonist mode, bound stated) [nM] | IC50 (Adrenergic α1A receptor; CHO-K1 cells, vs reference agonist at EC80, read-out: Antagonist Activity (IC50), α1A) [nM] | IC50 (Serotonin 5-HT7 receptor; CHO-K1 cells, vs reference agonist at EC80, read-out: Antagonist Activity (IC50), 5-HT7) [nM] | EC50 (Serotonin 5-HT7 receptor) [nM] | EC50 ([2]; agonist mode, bound stated) [nM]
1 | CCN(CC(F)(F)F)C(=O)N[C@H]1C[C@@H]2c3cccc4[nH]c(C5CC5)c(c34)C[C@H]2N(C)C1 [Compound A17H, 3-((6aR,9S,10aR)-5-cyclopropyl-7-methyl-4,6,6a,7,8,9,10,10a-octahydroindolo[4,3-fg]quinolin-9-yl)-1-ethyl-1-(2,2,2-trifluoroethyl)urea] | 11 | < 1000 | 25 | < 1000 | 13 | < 1000 | 140 | < 1000 |  |  |  |  |  |  |  |  |  | 
2 | CCN(CC)C(=O)N[C@H]1C[C@@H]2c3cccc4[nH]c(C(F)(F)F)c(c34)C[C@H]2N(C)C1 [Compound A9H, 1,1-diethyl-3-((6aR,9S,10aR)-7-methyl-5-(trifluoromethyl)-4,6,6a,7,8,9,10,10a-octahydroindolo[4,3-fg]quinolin-9-yl)urea] | 110 | < 1000 | 23 | < 1000 | 9.1 | < 1000 | 190 | < 1000 | 12 | < 1000 |  |  |  |  |  |  |  | 
3 | CCN(CC(F)(F)F)C(=O)N[C@H]1C[C@@H]2c3cccc4[nH]c(C(F)(F)F)c(c34)C[C@H]2N(C)C1 [Compound A16H, 1-ethyl-3-((6aR,9S,10aR)-7-methyl-5-(trifluoromethyl)-4,6,6a,7,8,9,10,10a-octahydroindolo[4,3-fg]quinolin-9-yl)-1-(2,2,2-trifluoroethyl)urea] |  |  |  |  |  | < 1000 |  | < 1000 |  |  | 16 | < 1000 | 16 | < 1000 | 15 | 380 |  | 
4 | CC[C@@H](CO)NC(=O)[C@@H]1C[C@@H]2c3cccc4c3c(c(C3CC3)n4C)C[C@H]2N(C)C1 [Compound D13H, (6aR,9R,10aR)-5-cyclopropyl-N—((S)-1-hydroxybutan-2-yl)-4,7-dimethyl-4,6,6a,7,8,9,10,10a-octahydroindolo[4,3-fg]quinoline-9-carboxamide] | 74 | < 1000 | 3.4 | < 1000 |  |  | 780 | < 1000 |  |  |  |  |  |  |  |  | 40 | 
5 | CCN(CC)C(=O)N[C@H]1C[C@@H]2c3cccc4[nH]c(Br)c(c34)C[C@H]2N(C)C1 [Compound A8H, 3-((6aR,9S, 10aR)-5-bromo-7-methyl-4,6,6a,7,8,9,10,10a-octahydroindolo[4,3-fg]quinolin-9-yl)-1,1-diethylurea] | 14 | < 1000 | 52 |  | 14 | < 1000 | 110 | < 1000 | 6.9 | < 1000 |  |  |  |  |  |  |  | < 1000
